Paper PMC10114980, “Triple targeting of mutant EGFR^L858R/T790M, COX-2, and 15-LOX: design and synthesis of novel quinazolinone tethered phenyl urea derivatives for anti-inflammatory and anticancer evaluation” (Journal of Enzyme Inhibition and Medicinal Chemistry, 2023)

Assays:
[1] = biological target: T1, double mutant EGFR^L858R/T790M (Homo sapiens, UniProt P00533, L858R/T790M); assay: In vitro EGFR inhibition assay, double mutant; type: biochemical; settings: for IC50: double mutant EGFR; for Selectivity (SI): ratio of the IC50 values EGFR^WT/EGFR^L858R/T790M
T1 construct: purchased AssayQuant Technologies, Inc. (Marlboro, MA, USA)

[2] = system: LPS-induced ROS production in RAW 264.7 cells; assay: ROS production in LPS-activated RAW 264.7 macrophage cells (DCFH-DA); type: cell-based; settings: LPS-activated RAW 264.7 cells, mean ± SEM, three replicates; for IC50: Mus musculus, RAW264.7
Description: (§1) TNF-α and IL-6 production were detected in RAW 264.7 macrophage cell culture supernatants following the induction of inflammation by LPS. Moreover, the probes of oxidative species 2,7-dichlorofluorescein diacetate (DCFH-DA) (Molecular Probes) and NO, 4-amino-5-methylamino-2,7-difluorofluorescein diacetate (DAF-FM diacetate) (Molecular Probes) were used to investigate the antioxidant and NO production inhibitory potential of the test compounds. Briefly, RAW 264.7 cells were cultured in black 96 well plates (200 000 cells/mL, 100 µl/well) for 24 h followed by the incubation with the individual test compounds or the reference drugs at different concentrations (12.5, 25, 50, and 100 µM) for 2 h at 37 °C. LPS was then added at a final concentration of 1 µg/mL for an additional 18 h. The cell culture supernatant was collected from cells treated with the different compounds at 25 µM to measure TNF-α and IL-6 levels (1:10 dilution) using DuoSet ELISA kits (R&D Systems, Minneapolis, MN) following the manufacturer’s instructions. Then, the plates were washed to perform ROS and NO detection assays as detailed in our previous studies[16]^,[27].

[3] = system: LPS-induced NO production in RAW 264.7 cells; assay: NO production in LPS-activated RAW 264.7 macrophage cells (DAF-FM diacetate); type: cell-based; settings: LPS-activated RAW 264.7 cells, mean ± SEM, three replicates; for IC50: Mus musculus, RAW264.7
Description: as §1

[4] = system: LPS-induced TNF-α production in RAW 264.7 cells; assay: TNF-α production in LPS-activated RAW 264.7 cells (ELISA); type: cell-based; settings: LPS-activated RAW 264.7 cells treated with 25 µM of the compound
[5] = system: CCRF-CEM; assay: NCI single dose screen, CCRF-CEM; type: cell-based; settings: Homo sapiens, leukaemia, single dose 10^−5 M, read-out: growth inhibition percentage
Description: (§2) Screening of the anticancer activity of the newly synthesised compounds (6a, 6c, 6d, 6e, 6j, 6l, 6m, 6n, 6o, and 6p) was performed by the US National Cancer Institute (NCI) using 60 different human tumour cell lines in accordance with standard procedures formerly reported.
(§3) In vitro anticancer screening was carried out for the selected compounds at a single dose (10^−5 M) against 60 different human tumour cell lines of nine different cancer cell types: leukaemia, lung, colon, CNS, melanoma, ovarian, renal, prostate, and breast cancers.

[6] = system: RPMI-8226; assay: NCI single dose screen, RPMI-8226; type: cell-based; settings: Homo sapiens; RPMI-8226, leukaemia; single dose 10^−5 M; read-out: growth inhibition percentage
Description: as §2, §3

[7] = system: SR; assay: NCI single dose screen, SR; type: cell-based; settings: Homo sapiens, leukaemia, single dose 10^−5 M, read-out: growth inhibition percentage
Description: as §2, §3

[8] = system: NCI-H226; assay: NCI single dose screen, NCI-H226; type: cell-based; settings: Homo sapiens; NCI-H226, non-small cell lung cancer; single dose 10^−5 M; read-out: growth inhibition percentage
Description: as §2, §3

[9] = system: HT29; assay: NCI single dose screen, HT29; type: cell-based; settings: Homo sapiens, HT-29; HT29, colon cancer; single dose 10^−5 M; read-out: growth inhibition percentage
Description: as §2, §3

[10] = system: KM12; assay: NCI single dose screen, KM12; type: cell-based; settings: Homo sapiens; KM12, colon cancer; single dose 10^−5 M; read-out: growth inhibition percentage
Description: as §2, §3

[11] = system: SF-268; assay: NCI single dose screen, SF-268; type: cell-based; settings: Homo sapiens; SF-268, CNS cancer; single dose 10^−5 M; read-out: growth inhibition percentage
Description: as §2, §3

[12] = system: SF-295; assay: NCI single dose screen, SF-295; type: cell-based; settings: Homo sapiens; SF-295, CNS cancer; single dose 10^−5 M; read-out: growth inhibition percentage
Description: as §2, §3

[13] = system: SNB-75; assay: NCI single dose screen, SNB-75; type: cell-based; settings: Homo sapiens; SNB-75, CNS cancer; single dose 10^−5 M; read-out: growth inhibition percentage
Description: as §2, §3

[14] = system: LOX IMVI; assay: NCI single dose screen, LOX IMVI; type: cell-based; settings: Homo sapiens, melanoma, single dose 10^−5 M, read-out: growth inhibition percentage
Description: as §2, §3

[15] = system: M14; assay: NCI single dose screen, M14; type: cell-based; settings: Homo sapiens; M14, melanoma; single dose 10^−5 M; read-out: growth inhibition percentage
Description: as §2, §3

[16] = system: SK-MEL-2; assay: NCI single dose screen, SK-MEL-2; type: cell-based; settings: Homo sapiens; SK-MEL-2, melanoma; single dose 10^−5 M; read-out: growth inhibition percentage
Description: as §2, §3

[17] = system: UACC-62; assay: NCI single dose screen, UACC-62; type: cell-based; settings: Homo sapiens; UACC-62, melanoma; single dose 10^−5 M; read-out: growth inhibition percentage
Description: as §2, §3

[18] = system: IGROV1; assay: NCI single dose screen, IGROV1; type: cell-based; settings: Homo sapiens, IGROV-1; IGROV1, ovarian cancer; single dose 10^−5 M; read-out: growth inhibition percentage
Description: as §2, §3

[19] = system: OVCAR-3; assay: NCI single dose screen, OVCAR-3; type: cell-based; settings: Homo sapiens; OVCAR-3, ovarian cancer; single dose 10^−5 M; read-out: growth inhibition percentage
Description: as §2, §3

[20] = system: OVCAR-5; assay: NCI single dose screen, OVCAR-5; type: cell-based; settings: Homo sapiens; OVCAR-5, ovarian cancer; single dose 10^−5 M; read-out: growth inhibition percentage
Description: as §2, §3

[21] = system: NCI/ADR-RES; assay: NCI single dose screen, NCI/ADR-RES; type: cell-based; settings: Homo sapiens, ovarian cancer, single dose 10^−5 M, read-out: growth inhibition percentage
Description: as §2, §3

[22] = system: 786-0; assay: NCI single dose screen, 786-0; type: cell-based; settings: Homo sapiens; 786-0, renal cancer; single dose 10^−5 M; read-out: growth inhibition percentage
Description: as §2, §3

[23] = system: CAKI-1; assay: NCI single dose screen, CAKI-1; type: cell-based; settings: Homo sapiens; CAKI-1, renal cancer; single dose 10^−5 M; read-out: growth inhibition percentage
Description: as §2, §3

[24] = system: RXF 393; assay: NCI single dose screen, RXF 393; type: cell-based; settings: Homo sapiens; RXF 393, renal cancer; single dose 10^−5 M; read-out: growth inhibition percentage
Description: as §2, §3

[25] = system: PC-3; assay: NCI single dose screen, PC-3; type: cell-based; settings: Homo sapiens; PC-3, prostate cancer; single dose 10^−5 M; read-out: growth inhibition percentage
Description: as §2, §3

[26] = system: MCF7; assay: NCI single dose screen, MCF7; type: cell-based; settings: Homo sapiens; MCF7, breast cancer; single dose 10^−5 M; read-out: growth inhibition percentage
Description: as §2, §3

T1 sequence (P00533 25-1210 T790M/L858R): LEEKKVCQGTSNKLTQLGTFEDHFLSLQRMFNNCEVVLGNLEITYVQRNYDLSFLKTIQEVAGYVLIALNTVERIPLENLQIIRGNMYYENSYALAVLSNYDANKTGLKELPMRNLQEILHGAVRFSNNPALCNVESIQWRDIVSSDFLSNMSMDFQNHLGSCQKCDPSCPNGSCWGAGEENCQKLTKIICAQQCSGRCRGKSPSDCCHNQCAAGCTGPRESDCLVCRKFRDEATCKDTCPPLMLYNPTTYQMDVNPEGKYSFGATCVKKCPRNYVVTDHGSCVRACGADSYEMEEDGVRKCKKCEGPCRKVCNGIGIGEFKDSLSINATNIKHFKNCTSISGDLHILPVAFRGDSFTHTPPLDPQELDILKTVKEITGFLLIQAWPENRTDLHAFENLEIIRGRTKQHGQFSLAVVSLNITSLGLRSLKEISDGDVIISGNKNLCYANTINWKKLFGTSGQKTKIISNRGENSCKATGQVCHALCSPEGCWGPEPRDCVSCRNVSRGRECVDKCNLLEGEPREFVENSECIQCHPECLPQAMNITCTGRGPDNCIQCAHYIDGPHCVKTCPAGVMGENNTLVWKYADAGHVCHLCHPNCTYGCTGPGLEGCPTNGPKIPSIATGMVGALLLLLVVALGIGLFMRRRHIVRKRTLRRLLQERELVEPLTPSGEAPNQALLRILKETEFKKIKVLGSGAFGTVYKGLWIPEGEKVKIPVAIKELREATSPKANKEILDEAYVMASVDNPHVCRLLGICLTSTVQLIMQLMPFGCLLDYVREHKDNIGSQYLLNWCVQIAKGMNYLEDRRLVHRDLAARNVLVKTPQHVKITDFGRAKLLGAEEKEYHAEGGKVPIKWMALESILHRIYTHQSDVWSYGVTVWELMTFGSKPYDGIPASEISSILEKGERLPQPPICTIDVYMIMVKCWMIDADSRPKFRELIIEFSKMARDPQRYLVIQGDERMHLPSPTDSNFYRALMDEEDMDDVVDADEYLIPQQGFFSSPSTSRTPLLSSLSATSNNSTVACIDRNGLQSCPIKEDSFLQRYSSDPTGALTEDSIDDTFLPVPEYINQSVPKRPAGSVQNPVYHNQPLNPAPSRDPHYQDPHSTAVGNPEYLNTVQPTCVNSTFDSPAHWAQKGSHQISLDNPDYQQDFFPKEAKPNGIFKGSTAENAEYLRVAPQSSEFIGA

| SMILES | IC50 [1] [µM] | IC50 [2] [µM] | IC50 [3] [µM] | TNF-α concentration [4] [pg/mL] | inhibition at 10 µM [5] [%] | inhibition at 10 µM [6] [%] | inhibition at 10 µM [7] [%] | inhibition at 10 µM [8] [%] | inhibition at 10 µM [9] [%] | inhibition at 10 µM [10] [%] | inhibition at 10 µM [11] [%] | inhibition at 10 µM [12] [%] | inhibition at 10 µM [13] [%] | inhibition at 10 µM [14] [%] | inhibition at 10 µM [15] [%] | inhibition at 10 µM [16] [%] | inhibition at 10 µM [17] [%] | inhibition at 10 µM [18] [%] | inhibition at 10 µM [19] [%] | inhibition at 10 µM [20] [%] | also measured |
| --- | --- | --- | --- | --- | --- | --- | --- | --- | --- | --- | --- | --- | --- | --- | --- | --- | --- | --- | --- | --- | --- |
| COc1ccc(C2N(NC(=O)Nc3ccc(F)cc3)C(=O)c3ccccc3N2C)cc1 (stereo not shown) [Compound 6p, 1-(4-Fluorophenyl)-3-(2–(4-methoxyphenyl)-1-methyl-4-oxo-1,4-dihydroquinazolin-3(2H)-yl)urea] | 5.41 ± 3.21 | 38.6 ± 1.33 | 10.84 ± 0.05 | 1549.00 ± 20.25 | < 10 | 11.2 | < 10 | < 10 | < 10 | < 10 | < 10 | < 10 | < 10 | 18.1 | 11.8 | < 10 | < 10 | < 10 | 17.1 | < 10 | Selectivity (SI) [1]: >18.5; inhibition at 10 µM [21]: < 10%; inhibition at 10 µM [22]: < 10%; inhibition at 10 µM [23]: < 10%; inhibition at 10 µM [24]: < 10%; inhibition at 10 µM [25]: 15.2%; inhibition at 10 µM [26]: 14.7% |
| CN1CN(NC(=O)Nc2ccccc2)C(=O)c2ccccc21 [Compound 6a, 1-(1-Methyl-4-oxo-1,4-dihydroquinazolin-3(2H)-yl)-3-phenylurea] | 0.46 ± 1.11 | 35.7 ± 1.08 | 0.97 ± 1.67 | 1157.00 ± 78.71 | < 10 | < 10 | < 10 | < 10 | < 10 | < 10 | < 10 | < 10 | < 10 | < 10 | < 10 | < 10 | < 10 | < 10 | < 10 | < 10 | Selectivity (SI) [1]: >217; inhibition at 10 µM [21]: < 10%; inhibition at 10 µM [22]: < 10%; inhibition at 10 µM [23]: < 10%; inhibition at 10 µM [24]: < 10%; inhibition at 10 µM [25]: < 10%; inhibition at 10 µM [26]: < 10% |
| CN1c2ccccc2C(=O)N(NC(=O)Nc2ccc(F)cc2)C1c1ccccc1 (stereo not shown) [Compound 6m, 1-(4-Fluorophenyl)-3-(1-methyl-4-oxo-2-phenyl-1,4-dihydroquinazolin-3(2H)-yl)urea] | 4.07 ± 3.7 | 57.2 ± 1 | 10.3 ± 0.27 | 935.60 ± 3.85 | < 10 | 16.1 | < 10 | < 10 | < 10 | < 10 | < 10 | < 10 | < 10 | 21.9 | 18.9 | < 10 | 20.7 | < 10 | 20.5 | < 10 | inhibition at 10 µM [21]: 16.8%; inhibition at 10 µM [22]: 12.9%; inhibition at 10 µM [23]: < 10%; inhibition at 10 µM [24]: < 10%; inhibition at 10 µM [25]: 22.1%; inhibition at 10 µM [26]: 21.2% |
| CN1c2ccccc2C(=O)N(NC(=O)Nc2ccccc2)C1c1ccccc1 (stereo not shown) [Compound 6c, 1-(1-Methyl-4-oxo-2-phenyl-1,4-dihydroquinazolin-3(2H)-yl)-3-phenylurea] | 7.93 ± 1.11 | 48.1 ± 1.07 | 1.54 ± 1.02 | 955.00 ± 4.66 | < 10 | < 10 | < 10 | < 10 | < 10 | < 10 | < 10 | < 10 | < 10 | < 10 | < 10 | < 10 | < 10 | < 10 | 11.7 | < 10 | Selectivity (SI) [1]: >12.6; inhibition at 10 µM [21]: < 10%; inhibition at 10 µM [22]: 35.3%; inhibition at 10 µM [23]: < 10%; inhibition at 10 µM [24]: < 10%; inhibition at 10 µM [25]: < 10%; inhibition at 10 µM [26]: < 10% |
| CN1c2ccccc2C(=O)N(NC(=O)Nc2ccccc2)C1c1ccc([N+](=O)[O-])cc1 (stereo not shown) [Compound 6e, 1-(1-Methyl-2-(4-nitrophenyl)-4-oxo-1,4-dihydroquinazolin-3(2H)-yl)-3-phenylurea] | 5.48 ± 1.33 | > 100 | > 100 | 1929.00 ± 53.88 | < 10 | < 10 | < 10 | < 10 | < 10 | < 10 | < 10 | < 10 | < 10 | < 10 | 67.2 | < 10 | < 10 | < 10 | < 10 | < 10 | Selectivity (SI) [1]: 8.9; ROS IC50 [2]: neither compound 6e nor compound 6g inhibited ROS production significantly; NO IC50 [3]: did not show any significant NO inhibitory activity; inhibition at 10 µM [21]: < 10%; inhibition at 10 µM [22]: 39.9%; inhibition at 10 µM [23]: < 10%; inhibition at 10 µM [24]: < 10%; inhibition at 10 µM [25]: < 10%; inhibition at 10 µM [26]: < 10% |
